From US10487112B2, “Pediococcus acidilactici derived antimicrobial hexapeptide and preparation method thereof” (Jiangnan University, priority 2016, dated 2019)
Like-named read-outs stand apart in the source and are kept apart here. No end group written: not given here.

Key:
Escherichia coli [1] = assay: Thermal stability of lactein R16 (antimicrobial experiment after heat treatment); format: physicochemical
Protocol: 8 parts of purified active substance lactein R16 with the concentration of 100 mg·mL^−1 is selected and is respectively treated at 40° C., 50° C., 60° C., 70° C., 80° C., 90° C. and 100° C. for 30 min and is subjected to high-pressure sterilization at 121° C. for 15 min, and an antimicrobial experiment is performed to observe the inhibition of the lactein R16 to Escherichia coli. The result is shown as FIG. 3.
The antimicrobial activity of the lactein R16 is lost by 59.98% after the lactein R16 is treated at 121° C. for 15 min.

[2] = tested on: Staphylococcus aureus ATCC 6538; format: cell-based
Protocol: (§1) The antimicrobial activity is detected by adopting a minimum inhibitory concentration (MIC) method, and the operation is as follows:
(§2) (a) inoculating the bacteria into an LB liquid culture medium according to the inoculation amount of 1%, and carrying out shaking culture over the night at 37° C. and 200r·min^−1;
(§3) (b) inoculating the culture solution into 20 mL of the LB liquid culture medium according to the inoculation amount of 1%, and carrying out shaking culture at 37° C. and 200r·min′ until the OD600 is equal to about 0.5; […]
(§4) (e) adding 450 μL of the prepared bacterial suspension into an aseptic tissue culture plate, and then, respectively adding 50 μL of antimicrobial active substance diluents with corresponding concentrations to ensure that the concentrations of to-be-measured antimicrobial active substances are respectively 25.6, 12.8, 6.4, 3.2, 1.6, 0.8, 0.4, 0.2 and 0.1 mg·mL^−1; and carrying out culture in a 37° C. constant-temperature incubator for 18-24 h by taking 500 μL of the bacterial suspension as a positive control and 500 μL of the LB liquid culture medium as a negative control; and […]

[3] = Antioxidant capability, clearing superoxide anions
Source text: (§5) The feed contains a certain quantity of unsaturated fat, fatty acid, lipid-soluble vitamin, carotenoid and other lipid-soluble substances, which are easily oxidized in a storage process of the feed, and particularly fat and fatty acid can be oxidized to result in rancidity to generate different compounds such as aldehyde, alcohol, fat and acid which may generate various peculiar smells to seriously affect the palatability of the feed, and some compounds can generate adverse effects for the animals due to certain toxicity. The antioxidant capability of the lactein R16 to hydrogen peroxide, hydroxyl radicals, DPPH.radicals and superoxide anions is shown as FIG. 5.

[4] = tested on: Escherichia coli in the soybean meal; assay: Inhibition of Escherichia coli in fermented soybean meal; format: cell-based; conditions: 48 h; for removal rate: 37° C.
Protocol: (a) crushing soybean meal by using a blade crusher, adding 4 parts (the weight of each part is 40 g) of soybean meal with the serial numbers of group 5, group 6, group 7 and group 8 into a 500 mL fermentation flask, and carrying out sterilization at 105° C. for 10 min;
(b) carrying out fermentation under conditions shown as table 3.
(c) measuring the amount of Escherichia coli according to the natural standard for measuring Escherichia coli in the feed.
The inhibiting effect of the lactein R16 to Escherichia coli in the soybean meal is studied by adding Escherichia coli into the sterilized soybean meal.

[5] = Antioxidant capability, clearing hydroxyl radicals
Source text: as §5

[6] = tested on: Escherichia coli ATCC 25922; assay: Antimicrobial spectrum, oxford-cup method; format: cell-based; design: key: “+++” represents for strong inhibition; “++” represents for relatively strong inhibition; “+” represents for inhibition; “−” represents for no inhibition; conditions: 100 mg·mL^−1, oxford-cup
Protocol: (§6) 8 parts of purified active substance lactein R16 with the concentration of 100 mg·mL^−1 is selected, and an inhibiting effect of the lactein R16 on Escherichia coli, Listeria monocytogenes and Staphylococcus aureus is detected by using an oxford-cup method.

Escherichia coli JM109 = assay: Antimicrobial spectrum, oxford-cup method; format: cell-based; design: key to Antimicrobial level: “+++” represents for strong inhibition; “++” represents for relatively strong inhibition; “+” represents for inhibition; “−” represents for no inhibition; conditions: 100 mg·mL^−1, oxford-cup
Protocol: as §6

Escherichia coli K99 = assay: Antimicrobial spectrum, oxford-cup method; format: cell-based; design: key to Antimicrobial level: “+++” represents for strong inhibition; “++” represents for relatively strong inhibition; “+” represents for inhibition; “−” represents for no inhibition; conditions: 100 mg·mL^−1, oxford-cup
Protocol: as §6

[7] = tested on: Listeria monocytogenes CMCC(B)54002; assay: Antimicrobial spectrum, oxford-cup method; format: cell-based; design: key to Antimicrobial level: “+++” represents for strong inhibition; “++” represents for relatively strong inhibition; “+” represents for inhibition; “−” represents for no inhibition; conditions: 100 mg·mL^−1, oxford-cup
Protocol: as §6

[8] = tested on: Staphylococcus aureus ATCC 6538; assay: Antimicrobial spectrum, oxford-cup method; format: cell-based; design: key to Antimicrobial level: “+++” represents for strong inhibition; “++” represents for relatively strong inhibition; “+” represents for inhibition; “−” represents for no inhibition; conditions: 100 mg·mL^−1, oxford-cup
Protocol: as §6

[9] = tested on: Listeria monocytogenes CMCC(B)54002; assay: Minimum inhibitory concentration (MIC) method; format: cell-based; conditions: LB medium, 37° C., 18-24 h
Protocol: as §1, §2, §3, §4

[10] = Antioxidant capability, clearing DPPH radicals
Source text: as §5

Escherichia coli [11] = assay: Stability of lactein R16 in pH (antimicrobial experiment after pH treatment); format: physicochemical
Protocol: 10 parts of purified active substance lactein R16 with the concentration of 100 mg·mL^−1 is selected, the pH of the lactein R16 is respectively regulated to be 1.0-10.0 by using 1.0 mol·L^−1 NaOH and 1.0 mol·L^−1 HCl, the lactein R16 is treated in a 37° C. water bath kettle for 2 h, then, the pH of the lactein R16 is regulated to be 4.5, and an antimicrobial experiment is performed to observe the inhibition of the lactein R16 to Escherichia coli. The result is shown as FIG. 2.
The antimicrobial activity of the lactein R16 is reduced step by step when the pH is 6.0-8.0, the reduction tendency is slow, and the residual activity is maintained at about 75%, which proves that the stability of the lactein R16 is reduced to a certain extent under such pH condition, but the pH has little influences on the stability of the lactein R16.

[12] = Antioxidant capability, clearing hydrogen peroxide
Source text: as §5

Saccharomyces cerevisiae = assay: Influences on probiotics, viable count; format: cell-based; conditions: MRS medium with 6.4 mg·mL^−1, 37° C., 24 h
Protocol: (§7) Each of probiotics is subjected to two-stage activation, is inoculated into an MRS culture medium containing 6.4 mg·mL^−1 of antimicrobial active substances according to the inoculation amount of 1% and is cultured at the constant temperature of 37° C. for 24 h in contrast with the probiotics inoculated into the MRS culture medium. Coated plate counting is performed by using a viable count method. The result is shown as FIG. 4.
(§8) A microecological preparation used as one of green feed additives is widely applied to the feed, wherein a composite microecological preparation prepared from Saccharomycetes, Lactic Acid Bacteria and Bacillus is more common, not only can degrade and soften crude fibers and increase the content of proteins, but also can improve the palatability of the feed, regulate the intestinal microecological balance of the animals and promote digestive absorption and growth. Saccharomyces cerevisiae, Pediococcus pentosaceus, Enterococcus faecium, Lactobacillus plantarum and Bacillus subtilis are selected as a study object to study the influences of the lactein R16 on Saccharomyces cerevisiae, Pediococcus pentosaceus, Enterococcus faecium, Lactobacillus plantarum and Bacillus subtilis, and the result is shown as FIG. 4.

Pediococcus pentosaceus = assay: Influences on probiotics, viable count; format: cell-based; conditions: MRS medium with 6.4 mg·mL^−1, 37° C., 24 h
Protocol: as §7, §8

Bacillus subtilis = assay: Influences on probiotics, viable count; format: cell-based; conditions: MRS medium with 6.4 mg·mL^−1, 37° C.
Protocol: as §7, §8

Enterococcus faecium = assay: Influences on probiotics, viable count; format: cell-based; conditions: MRS medium with 6.4 mg·mL^−1, 37° C.
Protocol: as §7, §8

Lactobacillus plantarum = assay: Influences on probiotics, viable count; format: cell-based; conditions: MRS medium with 6.4 mg·mL^−1, 37° C., 24 h
Protocol: as §7, §8

**Q.** What does the source list for ENGEEE [lactein R16, ENGEEE]?
**A.** activity retained in the process of pelletizing (Escherichia coli [1]; pelletizing at 75-85° C. for 1-2 min): completely retained; thermal stability (Escherichia coli [1]; summary statement): good; change of antimicrobial activity (Escherichia coli [1]; treated at 40, 50, 60, 70 and 80° C. for 30 min, 100 mg·mL^−1): no obvious changes; antimicrobial activity lost (Escherichia coli [1]; treated at 90° C. for 30 min): 21.95%; antimicrobial activity lost (Escherichia coli [1]; treated at 100° C. for 30 min): 49.47%; antimicrobial activity lost (Escherichia coli [1]; treated at 121° C. for 15 min (high-pressure sterilization)): 59.98%; MIC ([2]; ATCC 6538): 3400 µg/mL; MIC ([2]; LB medium, 37° C., 18-24 h): 3200 µg/mL; clearance rate [3]: 10.11%; amount of Escherichia coli after fermentation ([4]; 0.512 g in 40 g soybean meal, material-to-liquid ratio 1:0.8, 37° C., 1380·100 g^−1 before fermentation): 123 ·100 g^−1; removal rate ([4]; material-to-liquid ratio 1:0.8, 0.512 g in 40 g soybean meal): 33.44%; removal rate ([4]; material-water ratio 1:0.12, 0.512 g in 40 g soybean meal): 56.64%; clearance rate [5]: 70.13%; Antimicrobial level [6]: +; Antimicrobial level (Escherichia coli JM109): ++; antimicrobial activity (in words) (Escherichia coli JM109): relatively strong antimicrobial activity; Antimicrobial level (Escherichia coli K99): ++; antimicrobial activity (in words) (Escherichia coli K99): relatively strong antimicrobial activity; Antimicrobial level [7]: ++; antimicrobial activity (in words) [7]: relatively strong antimicrobial activity; Antimicrobial level [8]: +++; antimicrobial activity (in words) [8]: strongest; MIC [9]: 6400 µg/mL; clearance rate [10]: 79.42%; pH at which the antimicrobial activity reaches the maximum (Escherichia coli [11]; 100 mg·mL^−1, pH 1.0-10.0, 37° C. water bath 2 h, then pH 4.5, inhibition of Escherichia coli): 3.0-5.0; residual activity (Escherichia coli [11]; pH 6.0-8.0, 37° C. 2 h, inhibition of Escherichia coli): about 75%; pH stability (Escherichia coli [11]; summary statement): good; clearance rate [12]: 25.65%; amount of Saccharomyces cerevisiae increased as comparison with contrast (Saccharomyces cerevisiae): 24.50%; effect on Saccharomyces cerevisiae (in words) (Saccharomyces cerevisiae): a certain effect on proliferating; change of total bacterial count as comparison with contrast (Pediococcus pentosaceus): no obvious changes; total bacterial count after growing for 24 h (Bacillus subtilis): about 10^8 CFU·mL^−1; total bacterial count reduced as comparison with contrast (Bacillus subtilis; 24 h): 4.03%; total bacterial count after growing for 24 h (Enterococcus faecium): about 10^8 CFU·mL^−1; total bacterial count reduced as comparison with contrast (Enterococcus faecium; 24 h): 6.92%; effect on Lactobacillus plantarum (in words) (Lactobacillus plantarum): a certain effect on proliferating
